# Measured values published in patent US5478807A, “Use of relaxin in the treatment of bradycardia” (Genentech, Inc., priority 1992, dated 1995).
# Like-named read-outs stand apart in the source and are kept apart here.
# How the values were obtained:
# [1] = Continuous subcutaneous infusion in female SHR and SD rats, uterine weight; assay type: in vivo, rat; conditions: continuous s.c. infusion 1 or 10 ng/min
# Experimental: Groups (4 to 9 animals in each group) of conscious, non-pregnant, Spontaneously Hypertensive (SHR) and Sprague-Dawley (SD) female rats weighing about 144-385 g each, were used in this experiment. The rats were anesthetized with ketamine hydrochloride (150 mg/kg) in order to cannulate the left iliac artery and to implant an osmotic pump. All surgery was performed under aseptic conditions. Stretched PE 50 tubing was fitted with an injection cap and flushed with heparinized saline, routed subcutaneously, exteriorized between the capsulae, and passed through a spring tether that is anchored to the skin with a nylon button. Extreme care was taken in cannulating the left iliac artery to avoid damage to collateral circulation and local innervation. An (Alzet) osmotic pump filled with relaxin or vehicle was then inserted into a subcutaneous pocket caudal to the exit point of the cannula.
# All wounds were closed with suture, infiltrated with Xylocaine and coated with Betadine. […] Arterial pressure, heart rate, water intake, urine volume and vascular blood volume were measured daily throughout the duration of the experiments.
# Arterial pressure and heart rate were measured directly through the arterial cannulae with standard pressure transducers (Stoelting) and strain gauge amplifiers (Stoelting). […]
# [2] = target: T1, relaxin receptors in the atria of rat heart (Rattus norvegicus, UniProt Q6R6I6); test: Displacement of 32P-relaxin binding in rat heart tissue sections (autoradiography); conditions: for Kd: read-out: dissociation constant (Kd)
# T1 construct: The frozen tissues were sectioned to 16 μm thickness; from tissue; host or cells: rat heart (right and left atrium) frozen sections, from normal and from hormone-treated gonadectomized rats
# T1 sequence (Q6R6I6 1-758): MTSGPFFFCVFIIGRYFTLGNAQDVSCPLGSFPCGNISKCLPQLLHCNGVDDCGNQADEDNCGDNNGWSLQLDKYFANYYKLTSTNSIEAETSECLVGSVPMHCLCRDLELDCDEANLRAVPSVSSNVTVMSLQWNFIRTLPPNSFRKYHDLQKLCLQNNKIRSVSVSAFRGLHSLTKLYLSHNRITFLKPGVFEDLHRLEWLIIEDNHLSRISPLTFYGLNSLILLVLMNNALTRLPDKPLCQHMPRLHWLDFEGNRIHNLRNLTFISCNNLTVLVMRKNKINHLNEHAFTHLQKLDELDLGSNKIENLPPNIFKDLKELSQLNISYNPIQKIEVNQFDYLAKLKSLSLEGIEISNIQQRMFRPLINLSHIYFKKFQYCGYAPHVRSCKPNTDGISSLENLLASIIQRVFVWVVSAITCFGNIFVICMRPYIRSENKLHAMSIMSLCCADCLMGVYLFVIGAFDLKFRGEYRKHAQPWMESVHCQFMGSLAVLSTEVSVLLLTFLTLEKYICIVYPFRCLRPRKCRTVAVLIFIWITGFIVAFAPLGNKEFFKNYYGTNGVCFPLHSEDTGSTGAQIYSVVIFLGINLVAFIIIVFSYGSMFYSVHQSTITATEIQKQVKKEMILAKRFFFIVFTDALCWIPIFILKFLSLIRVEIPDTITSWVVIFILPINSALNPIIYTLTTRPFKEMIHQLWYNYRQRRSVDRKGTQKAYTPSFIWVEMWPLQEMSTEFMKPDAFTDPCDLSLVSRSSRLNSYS
# Experimental: Ten-week-old normal male and cyclic female Sprague-Dawley rats (Charles River Breeding Laboratories, Wilmonton, Mass.) were used for binding specificity and binding displacement experiments. These were given food and water ad libidium and housed in a room with the ambient temperature controlled around 21° C.
# For hormonal control experiments, 10-11-week-old female rats were ovariectomized for two weeks and then injected s.c. with 10 μg estradiol cyclopentyl propionate in a […] vehicle or with vehicle alone. Likewise, 10-11-week-old male rats were castrated for 2 weeks and were injected with either 10 μg estradiol cyclopentyl propionate, 10 μg testosterone, or vehicle alone. The rats were sacrificed 7 days later by asphyxiation with CO2. The relevant tissues were removed rapidly and frozen in powdered dry ice immediately.
# The frozen tissues were sectioned to 16 μm thickness using a Reichert-Jung Model 2800 Frigocut cryostat (Cambridge Instruments). Tissue sections were fixed onto gelatin/chromium potassium sulfate treated microscope slides by warming, and immediately refrozen and stored at -80° C. overnight or longer.
# For binding of ^32 P-relaxin to the tissue sections, frozen slides were prewashed with binding buffer (Hank's balanced salt solution supplemented with 20 mMHEPES, pH 7.2, 1 mg/ml BSA, 0.1 mM PMSF, and 1 μg/ml leupeptin) at 4° C. for 1.5-2 hours. The tissue sections were then covered with 600-700 μl of 100 pM ^32 P-relaxin with or without excess unlabeled relaxin and other competing agents as specificity control, and incubated at 4° C. for one hour. The slides were washed 3 times for 15-30 minutes each, with binding buffer. The slides were air-dried and mounted on filter paper and exposed to Hyperfilm-βMAX (Amersham) for 3-5 days.
# Regions of binding were determined by overlaying the autoradiographs with adjacent sections counterstained with hematoxylin-eosin. For relaxin binding displacement experiments, consecutive 16 μm sections were incubated with 100 pM of ^32 P-relaxin in the absence and presence of increasing concentrations (serial three-fold increases) of unlabeled relaxin in the range of 0.1-100 nM. Pseudocolor reconstruction and quantitative analysis of ^32 P-relaxin binding autoradiographs were performed with a RAS-3000 image analysis system (Amersham). The OD or radioactivities (cpm) of bound ^32 P relaxin (maximum binding in a particular region) were quantified by computerized densitometry based on parallel sets of ^32 P-relaxin standards (ranging from 50 to 2000 cpm) blotted onto nitrocellulose membranes (Trans-Blot SF, Bio-Rad, Richmond, Calif.). The binding inhibition data were fit to a four parameter equation to obtain the ED50 (the concentration of unlabeled relaxin yielding 50% displacement of the binding of ^32 p-relaxin). The dissociation constant (Kd) for relaxin was calculated by the method of Cheng and Prusoff [Biochem. Pharmacol. 22, 3099-3108 (1973)].
substance,measurement,setting,value
relaxin,uterine weight,[1],increased uterine weights
same,displacement of the binding of 100 pM 32P-relaxin,"[2]; 100 nM competitor, normal female rat heart",displacement of the binding of 100 pM ^32 P-relaxin by 100 nM unlabeled relaxin
same,displacement of the binding of 32P-relaxin,"[2]; 100 nM unlabeled relaxin, atria of normal male rat heart",fully displaced
same,Kd,[2]; atria of estrogen-treated ovariectomized rat heart,0.86 ± 0.35 nM
same,Kd,"[2]; atria of normal female rat heart, displacement of 32P-H2 relaxin, mean±S.E. of two regions",1.37 ± 0.13 nM
same,extent of displacement of 32P-relaxin binding,"[2]; heart, increasing concentrations of unlabeled relaxin",total displacement
